US20080039434A1, “Treatment of Interstitial Cystitis with Vitamin D Compounds” (BioXell S. p.A., priority 2004, published 2008)
Several values for one entry are separate records, joined by “and”; a condition that tells them apart may be missing. Equal values may be shown once.

How the values were obtained:
[1] = Body weight in allergic IC mice; type: in vivo, mouse; conditions: 75 ug/kg oral vs control animals; daily timepoints
Protocol: (§1) An ethanol stock solution of Compound B (1 mg/ml) was dissolved in Miglyol vehicle at the appropriate concentration. Control animals received the vehicle containing the same amount of ethanol. Drug (or vehicle) treatment was carried out by daily gavage after weighing the animal. Drug solution was prepared calculating a final volume of 100 ul/10 grams body weight, and treatment was started on the day of the first intravesical ovalbumin challenge, maintained daily, but discontinued over the weekends, for 12 days total treatment. FIG. 7 illustrates the timeline of the experiment.

IL-13 = assay: Taq-Man analysis of bladder mRNA, allergic IC in mice: IL-13; type: in vivo, mouse; conditions: ovalbumin challenged
Protocol: (§2) Mice (BALB/c, females 8 weeks old, weight 18-20 g, Charles River, Calco ITA) were sensitized by injecting 10 ug/mouse of chicken ovalbumin from Sigma (OVA, grade V) in the presence of 4 mg of alum (SERVA, Germany) by intraperitoneal injection, once a week for 4 weeks. This induces a sustained level of IgE detectable in serum.
(§3) One or two weeks after the last immunization boost, sensitized mice were anesthetized (1.5% Isoflurane) and then trans-urethrally catheterized (24 gauge, ¾ in.; Angiocath, Becton-Dickson). Slight digital pressure was applied the lower abdomen to drain the urine.
(§4) The urinary bladders were instilled with either 150 ul of either saline or OVA alone, (1 mg/150 ul) infused at a slow rate to avoid trauma and vesico-ureteral reflux and repeated twice within a 30-min interval with the syringe kept in place on the catheter for at least 30 min. Intravesical challenge was repeated 7-10 days after the first one with the same procedure.
as §1
(§5) Total RNA was extracted from one half of bladder by using RNeasy Mini kit (Qiagen), treated with DNase 1 (Qiagen) and reverse transcription performed with Reverse Transcription Reagent (Applied Biosystems) with Random Hexamers (according to the manufacturer's instructions). cDNA was synthesized from 1 ug of RNA. Real-Time PCR was performed in 96-well optical reaction plates (Applied Biosystems). For each sample we amplified both the target gene and the housekeeping gene (HPRT) in different wells (singleplex) and in duplicate. The amplification Master Mix was prepared according to the following protocol (volumes refer to a single well with a final volume of 40 ul/well)): 2× TaqMan® R Universal PCR Master Mix (Applied Biosystems, 4304437): 20 ul; 20× Assay target gene: 2 ul; H2O: 8 ul; cDNA: 10 ul. Reaction was run on an SDS 7000 (Applied Biosystems) instruments, with the following amplification program: 2′ at 50° C.; 10′ at 95° C.; 15″ at 95° C. and 1′ at 60° C. for 40 cycles; Cycle threshold (Ct) values were exported into Excel Worksheets for analysis and relative quantitations were performed using the ΔCt method. All primers used carried the FAM reporter.
(§6) Experiments in Example 7 were performed according to the general procedures described previously in Example 6. Mice were challenged with saline (untreated) or ovalbumin (treatment with vehicle or one of Compounds C-I at a dosage indicated in Table 6 in ug/kg).

MMCP4 = assay: Taq-Man analysis of bladder mRNA, allergic IC in mice: MMCP4; type: in vivo, mouse; conditions: ovalbumin challenged; 75 ug/kg oral; individual animals
Protocol: as §2, §3, §4, §1, §5, §6

[2] = test system: rats with CYP-induced cystitis; assay: Cystometry in conscious rats with cyclophosphamide (CYP) induced chronic IC, Compound A; type: in vivo, rat; set-up: Bl. Cap. / FP / TP / MP / amplitude of NVBC: unit not given here; conditions: Compound A oral 0.1 μg/kg daily for 14 days
Description: The rat model of chemical cystitis induced by intraperitoneal injection of CYP has been Well accepted. CYP is used in clinical practice in the treatment of a number of malignant tumors. One of its metabolites, acrolein, is excreted in urine in large concentrations causing hemorrhagic cystitis associated with symptoms of urinary frequency, urgency and pelvic pain. The inflammatory process is characterized by changes in gross histology of bladder, increase in number and distribution of inflammatory cell infiltrates (mast cells, macrophage, PMNs), cyclo-oxygenase-2 expression and prostaglandin production, growth factor and cytokine production. The rat model of chemical cystitis closely resembles interstitial cystitis, a chronic, painful urinary bladder syndrome and has been used for the testing of therapeutic agents in the past.
This model was used to test the effects of oral administration of 1,25-dihydroxyvitamin D3 analogue in rats with CYP-induced cystitis. The effects of the treatment on the cystometric parameters in a conscious freely moving rat with CYP-induced cystitis were monitored. The following cystometric parameters were recorded in each animal: • bladder capacity • filling pressure (pressure at the beginning of the bladder filling) • threshold pressure (bladder pressure immediately prior to micturition) • micturition pressure (the maximal bladder pressure during micturition) • presence or absence of non-voiding bladder contractions (increases in bladder pressure of at least 10 cm H2O without release of urine) • amplitude of non-voiding bladder contraction.
Animals: Wistar female rats, age 8 weeks, weighing 125-175 g were used. […] Following recovery all animals received three intraperitoneal injections of CYP and subsequently were divided into the treatment and sham control groups.
Treatment group: Rats treated with oral 1,25-dihydroxyvitamin D3 analog (1,3-Di-O-acetyl-1,25-dihydroxy-16,23Z-diene-26,27-hexafluoro-19-nor-cholecalciferol) “Compound A” for 14 days (daily dose of 0.1 μg/kg)
Cystometry was performed 24 hours following the last dose of the drug or vehicle on awake freely moving animals.
A lower midline abdominal incision was performed under general inhalation anesthesia (isoflurine with O2) and polyethylene tubing (PE-50, Clay Adams, Parsippany, N.J.) with the end flared by heat was inserted into the dome of the bladder and secured in place with a 6-0 prolene purse string suture. The distal end of the tubing was heat-sealed, tunneled subcutaneously and externalized at the back of the neck, out of the animal's reach. Abdominal and neck incisions were closed with 4-0 nylon sutures.
Following recovery (5 days) subject animals underwent three intraperitoneal injections of CYP (Sigma Chemical, St. Luis, Mo.; 75 mg/kg each, intraperitoneal) over the period of nine days. On the tenth day following the first CYP injection the sham control animals received the vehicle only, whereas the experimental group were treated with the 1,25-dihydroxyvitamin D3 analogue 1,3-Di-O-acetyl-1,25-dihydroxy-16,23Z-diene-26,27-hexafluoro-19-nor-cholecalciferol “Compound A” (delivered orally using gavage). Two weeks following the initiation of the treatment animals underwent a conscious cystometrogram to assess the function of the urinary bladder.
An animal was placed unrestrained in a cage and the catheter was connected via a T-tube to a pressure transducer (Grass® Model PT300, West Warwick, R.I.) and microinjection pump (Harvard Apparatus 22, South Natick, Mass.). A 0.9% saline solution was infused at room temperature into the bladder at a rate of 10 ml/hour. […]. At least three reproducible micturition cycles were recorded after the initial stabilization period of 25-30 minutes.

Row | Structure (SMILES) | body weight [1] | expression of inflammatory marker IL-13 (IL-13; 75 ug/kg oral, individual animals) | expression of inflammatory marker IL-13 (IL-13; 30 and 75 ug/kg oral, dose dependent, pooled samples) | expression of inflammatory marker MMCP4 (MMCP4) | Bl. Cap. ([2]; CYP cystitis, individual rats RB7, RB13, RB15, three micturition cycles each) | amplitude of NVBC ([2]; individual rats, three micturition cycles each) | FP ([2]; filling pressure, individual rats, three micturition cycles each) | MP ([2]; micturition pressure, individual rats, three micturition cycles each) | # of NVBC ([2]; non-voiding bladder contractions, individual rats, three micturition cycles each) | TP ([2]; threshold pressure, individual rats, three micturition cycles each)
1 | C=C1/C(=C\C=C2/CCC[C@]3(C)C([C@@H](C)C/C=C/C(O)(CC)CC)=CC[C@@H]23)C[C@@H](O)C[C@@H]1F [Compound B, 1-alpha-fluoro-25-hydroxy-16,23E-diene-26,27-bishomo-20-epi-cholecalciferol] | no significant difference | down-modulates | significantly reduces | down-modulates | – | – | – | – | – | –
2 | CC(=O)OC1C/C(=C/C=C2\CCC[C@]3(C)C(C(C)C/C=C\C(O)(C(F)(F)F)C(F)(F)F)=CCC23)C[C@@H](OC(C)=O)C1 (stereo partly shown) [Compound A, 1,3-Di-O-acetyl-1,25-dihydroxy-16,23Z-diene-26,27-hexafluoro-19-nor-cholecalciferol] | – | – | – | – | 1.9 and 1.3 (2×) and 2.5 and 1.5 and 0.7 (2×) and 0.8 and 1.4 | 10 and 11 (2×) and 0 (6×) | 15 and 14 (3×) and 12 and 11 and 10 and 13 (2×) | 105 and 97 (2×) and 90 and 100 and 108 and 98 and 101 and 104 | 4 and 8 (2×) and 0 (6×) | 16 and 17 and 14 (4×) and 12 and 11 and 15
